Experimental data taken from patent US20200338115A1, “PHARMACEUTICAL COMPOSITION FOR PREVENTION OF RECURRENT URINARY TRACT INFECTION” (priority 2019, published 2020).

How the values were obtained:
[1] = system: bladder epithelium; assay: Rat UTI model (Example 1): H/E staining of bladder tissue; assay type: in vivo, Sprague-Dawley (SD) rats; conditions: PPS 30 mg/kg/day oral Day −14 to Day 0; rats sacrificed at Day 14
From the text: (§1) UPEC is known as the primary cause of UTI.
(§2) The rats are sacrificed at Day 14.

[2] = system: recurrent urinary tract infection (rUTI); assay: Phase II randomized controlled trial of oral PPS for prevention of rUTI (Example 2): efficacy; assay type: in vivo, human subjects
From the text: The current example is a multicenter, prospective, open-label, phase II, randomized controlled trial. The purpose of the current example is to investigate the effects of orally administered PPS in the prevention of rUTI in the human subjects. The study period of the current trial is 16 weeks, which is expected to cover most of the rUTI episodes.
The human subjects in the current example are screened and recruited in the OPD. Eligible patients are 20-70 year-old female patients with confirmed UTI ≥2 times in the past 6 months, or ≥3 times in the past 12 months, and had prior antibiotics treatment for previous UTI episodes(s). The eligible patients are without lower urinary tract symptoms and completely recovered from the last UTI episode. Patients with the following criteria are also excluded: allergic reaction to PPS, undergoing surgery within 24 week in a follow-up period of the current trial, participating in any intervention study 90 days before screening, bladder instillation with hyaluronic acid within 3 months before screening, pregnancy, breast feeding, upper urinary tract infection, fever >38° C., serum WBC count greater than 12,000/mm^3, urinary catheterization within 1 week, urinary tract anomalies, interstitial cystitis, urolithiasis, renal insufficiency, cancer history, immunocompromised, organ transplant history, pelvic organ prolapse stage II or higher, post-voiding residual urine more than 100 ml, stress or urge urinary incontinence, and positive urine culture during screening. 45 patients are screened for eligibility, with only 27 patients remained and 18 patients are excluded. The screening in the current trial is defined as Visit 1.
For analyzing results of the current study, all statistical analyses are performed using MedCalc Statistical Software version 19.0.3. The Mann-Whitney U test and Student's t-test are used to compare medians and means, respectively. Contingency tables are constructed for comparisons using a chi-square test and Fisher's exact test. The Kaplan—Meier method is used for the construction of survival curves. A log-rank test and Cox proportional hazard model are used to compare recurrence-free survival duration between groups. All tests are 2-tailed. A P-value <0.05 is considered significant.

[3] = system: uropathogenic Escherichia coli (UPEC); assay: Rat UTI model, low-dose PPS (Example 3): urine bacterial counts; assay type: in vivo, SD rats; conditions: for urine bacterial counts compared with UTI model group: Day 3
From the text: (§3) The purpose of the current example is to investigate effects of a reduced dosage of PPS for preventing UTI in the rat URI model. The SD rats are randomized and grouped into a control group (N=7), an UTI model group (N=10), a normal PPS dosage group (N=10), and a reduced PPS dosage group (N=5). The UTI model group, the normal PPS dosage group, and the reduced PPS dosage group are infected with UPEC on Day 1. The method of infection and the amount of UPEC being injected to the rats of the current study are the same as the UPEC infection in Example 1. […] The control group is not infected by the UPEC or treated by PPS. Urine samples and the blood samples of the rats are collected on Day 0, 3, and 7, using the same techniques and tools as described in Example 1. The collected urine samples are diluted 10, 10^2, 10^3, 10^4, and 10^5 folds, and the diluted urine samples are cultured on BSA plates and incubated for 12 hours at 37° C. UPEC colonies on the BSA plates are counted after the incubation. In FIGS. 10 and 11, the UTI model group is denoted as “UTI”, the normal PPS dosage group is denoted as “UROpre”, and the reduced PPS dosage group is denoted as “low UROpre”.

[4] = pH 6; cited from earlier work
[5] = system: peripheral WBC count; assay: Rat UTI model, low-dose PPS (Example 3): peripheral WBC count percentages; assay type: in vivo, SD rats; conditions: 8.5 mg/kg/day oral Day −14 to Day 0
From the text: as §3
FIG. 11 is a bar chart comparing the peripheral WBC count percentages of the control group, the reduced PPS dosage group, and the UTI model group, in accordance with an embodiment of the present disclosure. The WBC counts reflects a current urinary tract infection episode, the WBC count percentage can be a relative indicator comparing the WBC counts before the infection and after the infection. The WBC count percentages in FIG. 11 are used to examine the efficacy of the reduced PPS dosage in the rat UTI model. The WBC counts on Day 0 in the control group, the reduced PPS dosage group, and the UTI group are designated as 100% in FIG. 11. The WBC count percentages of the 3 groups are elevated on Day 1, reflecting more WBCs entering the peripheral blood after the infection. On Day 3, the WBC count percentage of the low UROpre group is about 120%, whereas the WBC count percentage of the UTI group is about 130%.

[6] = in vivo
Procedure: The 27 patients remained are randomized to a PPS group (N=13) and a control group (N=14). The PPS are orally administered to the PPS group according to a continuous daily dosing regimen of 100 mg, 3 times a day for the first 8 weeks (total administered amount is 300 mg PPS per day). Then, the dosing regimen is changed to 100 mg 2 times a day for the remaining 8 weeks (total administered amount is 200 mg PPS per day). The PPS can be taken either 1 hour before or 2 hours after meal. Any forms of UTI prophylaxis or treatment, including antibiotics, hyaluronic acid instillation, cranberry, nonsteroidal anti-inflammatory drugs, or steroids, are forbidden in the study period of the current trial. […] The patients in both groups are visited every four week from the 0th week (Visit 2), the 4th week (Visit 3), the 8th week (Visit 4), the 12th week (Visit 5), to the 16th week (Visit 6), and Visit 6 is marked as the end of the current trial.
The patients are required to report relevant urinary tract symptoms to an investigator, during each of the visits. […] Information regarding adverse events, including grade of severity (according to National Cancer Institute Common Terminology Criteria for Adverse Events, version 5.0), timing, and their relationship with the medication assessed by the investigator, are also recorded at each of the visits. […]

[7] = system: TNF-α; assay: Rat UTI model (Example 1): Luminex assay of peripheral blood TNF-α; assay type: in vivo, Sprague-Dawley (SD) rats; conditions: PPS 30 mg/kg/day oral Day −14 to Day 0; Day 3 and Day 14
From the text: as §1, §2
(§4) Luminex assays are used to evaluate peripheral blood biomarkers relevant to infection or inflammation. FIG. 6 is a bar chart comparing the Luminex assay results for IL-1β in the control group, the UTI model group, and the PPS prevention group, in accordance with an embodiment of the present disclosure. IL-1β level is relevant to a current inflammation or infection, and a higher IL-1β level indicates a more severe inflammation. […] FIG. 7 is a bar chart comparing the Luminex assay results for TNF-α in the control group, the UTI model group, and the PPS prevention group, in accordance with an embodiment of the present disclosure. TNF-α is a cytokine that promotes inflammatory responses, and a higher TNF-α level indicates a more severe inflammation in the rats.

[8] = orally administered PPS, previous studies; cited from earlier work
[9] = system: peripheral red blood cell (RBC) counts; assay: Rat UTI model (Example 1): peripheral red blood cell counts; conditions: PPS 30 mg/kg/day oral Day −14 to Day 0; control, UTI model and PPS prevention groups
Procedure: The current example treats Sprague-Dawley (SD) rats with uropathogenic Escherichia coli (UPEC) to establish the rat UTI model. […] The UPEC used in the current example is ATCC®700336™, designation: J96 (serotype O4:K6), purchased from Food Industry Research and Development Institute of Taiwan. The UPEC is stored in trypticase soy agar/broth, and is centrifuged at 5,000 rpm for 10 minutes. Pellets of the UPEC after the centrifugation are dissolved in 10 mL sterile phosphate buffered saline (PBS). The cell density of the UPEC is adjusted to an optical density (OD600) of 1 to 1.1. This optical density is corresponded to the cell density of 8×10^7 to 2×10^8 colony forming units (CFU)/mL. The UPEC is then made into a 250 μL 0.9% N/S solution of 8×10^7 CFU for treating the rats.
The UTI model group and the PPS prevention group are infected with the UPEC by trans-urethral catherization on Day 1. The PPS prevention group is treated with the PPS by oral gavage with a 18G stainless-steel gavage needle attached to a 3 mL tuberculin syringe from Day −14 to Day 0. The PPS dosage for the rats in the current example is 30 mg/kg/day. […] The UPEC in the LB broths and on the LB agar plates are quantified after the incubation. […]

[10] = system: IL-1β; assay: Rat UTI model (Example 1): Luminex assay of peripheral blood IL-1β; assay type: in vivo, Sprague-Dawley (SD) rats; conditions: PPS 30 mg/kg/day oral Day −14 to Day 0; Day 3
From the text: as §1, §2, §4

[11] = system: peripheral white blood cell (WBC) counts; assay: Rat UTI model (Example 1): peripheral white blood cell counts; assay type: in vivo, Sprague-Dawley (SD) rats; conditions: PPS 30 mg/kg/day oral Day −14 to Day 0
From the text: as §1, §2
FIG. 4 is a bar chart comparing peripheral white blood cell (WBC) counts in the control group, the UTI model group, and the PPS prevention group, in accordance with an embodiment of the present disclosure. The WBC counts in different groups reflect conditions of the UPEC infection in the rats: a higher WBC count may represent a more severe UPEC infection. […] The WBC counts in the UTI model group have remained as the highest among 3 groups on Day 1, Day 3, and Day 7.

[12] = system: uropathogenic Escherichia coli (UPEC); assay: Rat UTI model (Example 1): urine bacterial counts after oral PPS; assay type: in vivo, Sprague-Dawley (SD) rats
From the text: as §1, §2

Substance: pentosan polysulfate sodium [PPS]
- H/E staining result of bladder tissue [1]: fresh layer of accumulated epithelial cells
- overall UTI recurrence free survival compared with control group (Kaplan-Meier) ([2]; 26 patients, log-rank test p=0.0004): significantly higher in the PPS group than in the control group
- UTI recurrence, % ([2]; PPS group N = 12, 300 mg/day for 8 weeks then 200 mg/day for 8 weeks, oral, 16 weeks, control 64.3%, p <0.001): 0%
- lower urinary tract symptoms or positive urine analysis ([2]; PPS group, 16-week study period): none of the patients in the PPS group had lower urinary tract symptoms nor positive urine analysis
- efficacy in preventing rUTI in the human subjects ([2]; about 3.34 mg/kg/day, total 200 mg PPS per day, remaining 8 weeks): also therapeutically effective
- efficacy in preventing rUTI in the human subjects ([2]; less than 5 mg/kg/day, total 300 mg PPS per day (reference weight 60 kg), first 8 weeks): proven to be therapeutically effective
- protective effect in preventing rUTI in the human subjects ([2]; oral administration of PPS, conclusion of the trial): excellent protective effect
- therapeutic effect in the rat UTI model ([3]; 8.5 mg/kg/day orally administered PPS, 14 days): therapeutically effective
- urine bacterial counts compared with UTI model group ([3]; normal PPS dosage 30 mg/kg/day oral Day −14 to Day 0 (UROpre)): lower than the UTI model group
- urine bacterial counts compared with UTI model group ([3]; reduced PPS dosage 8.5 mg/kg/day oral Day −14 to Day 0 (low UROpre)): lower than the UTI model group
- solubility in water [4]: up to 50%
- peripheral WBC count percentage (Day 0 = 100%) ([5]; Day 1): elevated
- peripheral WBC count percentage (Day 0 = 100%) ([5]; Day 3, UTI group about 130%): about 120%
- peripheral WBC count percentage (Day 0 = 100%) ([5]; Day 7): about 60%
- peripheral WBC count percentage compared with UTI group ([5]; Day 7): significantly lower than that of the UTI group
- adverse effects observed in the trial [6]: none of the above adverse effects are observed
- complete blood counts, liver function tests and coagulant-related tests [6]: no abnormalities
- peripheral TNF-α levels compared with UTI model group [7]: lower TNF-α levels than the UTI model group
- adverse effect: abdominal pain [8]: 2%
- adverse effect: diarrhea [8]: 1-14.9%
- adverse effect: dizziness [8]: 1%
- adverse effect: dyspepsia [8]: 2%
- adverse effect: headache [8]: 1-2.9%
- adverse effect: liver function abnormalities [8]: 1-2%
- adverse effect: nausea [8]: 1.4%-7.9%
- adverse effect: rash [8]: 3%
- adverse effect: rectal hemorrhage [8]: 4%
- peripheral RBC counts, difference among groups [9]: no significant differences
- peripheral IL-1β level compared with UTI model group [10]: significantly lower than the UTI model group
- peripheral WBC counts compared with UTI model group ([11]; Day 1, Day 3 and Day 7): fewer than the WBC counts in the UTI model group
- peripheral WBC counts, time course ([11]; after Day 3): in steady decline after Day 3
- urine bacterial counts compared with UTI model group ([12]; PPS 30 mg/kg/day oral Day −14 to Day 0, UPEC on Day 1, Day 1, Day 3 and Day 7): lower than the urine bacterial counts in the UTI model group
- urine bacterial counts ([12]; PPS 30 mg/kg/day oral gavage Day −14 to Day 0, Day 0): below 10^3 CFU/mL
- overall effect on UTI in the rats ([12]; PPS oral 30 mg/kg/day for 14 days): effectively reduces UTI
